Measured values published in PMC4451689, “A Novel Direct Factor Xa Inhibitory Peptide with Anti-Platelet Aggregation Activity from Agkistrodon acutus Venom Hydrolysates” (Scientific Reports, 2015).
pIC50, pKi: −log10 of the molar value. Marks after values point to notes of the source that are not given here. Where a SMILES comes first, the peptide text is derived from it.

Tests used:
[1] = tested on: ADP-induced acute pulmonary thrombosis in mice; test: ADP-induced acute pulmonary thrombosis in mice; format: in vivo, ICR mice; settings: aspirin 20 mg/kg, ADP 300 mg/kg i.v.
Procedure: To examine whether ACH-11 exerted antithrombotic effects in vivo, the peptide was challenged in an acute pulmonary thrombosis model in mice. Aspirin, which is a clinical anti-thrombosis medicine that acts as a selective COX-1 inhibitor, was used as a positive control. In this model, small thrombi formed by intravenous injection of ADP (300 mg/kg) occluded pulmonary vessels, resulting in paralysis or death of the mice.
(§1) Institute of Cancer Research (ICR) mice (18–22 g), Sprague-Dawley rats (180–250 g) and New Zealand white rabbits (2–2.5 kg) were purchased from Nanjing Qinglongshan Animal Center (Jiangsu province, China). They were housed in a temperature-controlled room at 25 ± 2 °C and 50 ± 5% relative humidity with a l2 h dark/light cycle. They were given free access to food and water ad libitum. The animals were acclimatized for at least 1 week prior to use. All experiments were carried out in accordance with the guidelines and the regulations of the Ethical Committee of the China Pharmaceutical University. The protocols were approved by the Institutional Animal Care and Use Committee of the China Pharmaceutical University.
ADP-induced acute pulmonary thrombosis in mice was performed as described previously. Sixty ICR mice (18–22 g) were fasted overnight and randomly divided into 6 groups, with 10 mice per group (males and females in half). […]

[2] = tested on: arterio-venous shunt thrombosis in rats; test: In vivo arterio-venous shunt thrombosis in rats; set-up: species or system Sprague-Dawley rats; settings: aspirin 20 mg/kg, rat; mean ± SEM, n = 6
Procedure: Figure 6 ACH-11 inhibited arterio-venous shunt thrombosis in rats in vivo. After the administration of ACH-11 (0.33, 1 and 3 mg/kg), aspirin and the vehicle, rats were anesthetized by intraperitoneal injection of chloral hydrate (350 mg/kg), and an arterio-venous shunt tube (12 cm, containing 10-cm long of 4 braided silk thread) was installed between the right carotid artery and left jugular vein of each rat. After 20 min, the silk thread was removed from the shunt tube, and its wet weight was immediately measured. The dry weight of the thread was measured 6 h later at room temperature. The wet and dry weights of the formed thrombi were determined by subtracting the pre-experiment weights of the wet and dry 6-cm threads, respectively. Data are the mean ± SD, ^*P < 0.05, ^***P < 0.001 and ^****P < 0.0001 versus vehicle, n = 6, analyzed by one-way ANOVA, followed by the Tukey multiple comparison test. […]
Antithrombotic activity of ACH-11 in vivo was determined in a rat arterio-venous shunt thrombosis model as described previously[39] with a minor modification. […] Its wet weight was measured immediately. The dry weight of thread was measured 6 h later at room temperature. The wet and dry weights of the thrombi were determined by subtracting the pre-experimental weights of the wet and dry 6-cm threads, respectively.

bleeding time in mice = test: Bleeding time (tail cutting method); format: in vivo; settings: n = 10; for bleeding time: tail in saline 37 °C, 20-min recording, mean ± SD
Procedure: Fifteen minutes after the administration of ACH-11 (1, 3 and 9 mg/kg), aspirin (9 mg/kg for 30 min) and the vehicle, a 3 mm-long tail tip was cut from the mice, and the remaining tail was immersed immediately into saline at 37 °C. The accumulated bleeding time (including periods of re-bleeding) was recorded over a 20-min period. Data are presented as the mean ± SD (n = 10). ^****P < 0.0001, ^**P < 0.01 versus vehicle, analyzed by one-way ANOVA, followed by the Tukey multiple comparison test.
as §1
Bleeding time of the mice was measured by a tail cutting method as described previously. Mice were randomly divided into five groups (both sexes, 10 per group), including a vehicle group, a reference drug group (9 mg/kg of aspirin-treated) and three sample groups (1, 3 and 9 mg/kg of ACH-11-treated).

FXa [3] = target: T1, FXa (Homo sapiens, UniProt P00742); test: Inhibition of amidolytic activity of FXa (chromogenic substrate S-2222); format: biochemical; settings: sample dissolved at 5 mg/mL, PBS pH 8.34, 37 °C, n = 3, compared with the other fractions/hydrolysates
Procedure: Figure 1 Selection of enzymatic hydrolysis conditions and bioassay-directed chromatographic separation of the FXa inhibitory peptide. (a) FXa inhibitory activities of Agkistrodon acutus venom hydrolysates obtained by treatment with pepsin, papain, neutrase and alcalase at 1, 2, 3, 4, 8, 12 h intervals. (b) Agkistrodon acutus venom hydrolysate produced by neutrase (3 h) was separated on a gel filtration column packed with Sephadex G-50 (2.6 × 100 cm). The hydrolysate was eluted by distilled water at a flow rate of 0.6 mL/min, collecting fractions of 3.6 mL. (c) The FXa inhibitory activities of fractions A-E. (d) Fraction C was separated on a Hedera ODS-2 column (20 × 250 mm). (e) The FXa inhibitory activities of fractions C1-C8. […]
The lyophilized neutrase hydrolysate (0.2 g) was dissolved in 10 mL of distilled water and applied to a Sephadex G-50 column (2.6 × 100 cm) equilibrated with distilled water and eluted with the same buffer at a flow rate of 0.6 mL/min. The eluents were monitored at 280 nm and were collected at 6 min intervals. […] The UV absorbance was monitored at 214 nm.
Inhibition of the amidolytic activity of FXa was analyzed by a method described previously, with minor modifications. Enzymatic activity was measured in PBS at pH 8.34 using the chromogenic substrate method. […] The absorbance-time curve and the slope of the curve (Vi) were used to represent the activity of the enzyme. […]

[4] = tested on: U46619-induced rabbit platelet aggregation; test: In vitro platelet aggregation assay, U46619-induced; format: cell-based; settings: U46619 6 μM, rabbit PRP, turbidimetric, preincubated 5 min; 95% CI 415.62–525.95 μM
Procedure: (§2) Figure 5 ACH-11 inhibited ADP- and U46619-induced rabbit platelet aggregation in vitro. PRP was preincubated for 5 min with different concentrations of ACH-11 (0.1, 0.25, 0.5 and 1 mg/mL) or the vehicle. Platelet aggregation was initiated with ADP (10 μM), U46619 (6 μM), thrombin (3 U/mL) or collagen (2.5 μg/mL). Data are the mean ± SD (n = 3), ^****P < 0.0001 and ^*P < 0.05 versus vehicle, analyzed by one-way ANOVA, followed by the Tukey multiple comparison test.
(§3) Institute of Cancer Research (ICR) mice (18–22 g), Sprague-Dawley rats (180–250 g) and New Zealand white rabbits (2–2.5 kg) were purchased from Nanjing Qinglongshan Animal Center (Jiangsu province, China). They were housed in a temperature-controlled room at 25 ± 2 °C and 50 ± 5% relative humidity with a l2 h dark/light cycle. They were given free access to food and water ad libitum. The animals were acclimatized for at least 1 week prior to use. […]
(§4) In vitro platelet aggregation assays were performed according to the turbidimetric method, as described previously. […] The extent of platelet aggregation inhibition by ACH-11 was calculated by the following formula (2): [drawing 2] where X represents the maximum aggregation rate of 5% DMSO-treated PRP and Y represents the maximum aggregation rate of sample-treated PRP. […]

FXa [5] = target: T1, FXa; test: Determination of the inhibitory constant for FXa (kinetics, Lineweaver-Burk); format: biochemical
Procedure: Figure 3 Kinetic activity of ACH-11 to FXa in vitro. Lineweaver-Burk plot (inset) for ACH-11 kinetics in PBS at pH 8.34 and 37 °C with mixed inhibition in the presence of different concentrations of ACH-11: 0 μM (slope of 0.376), 5 μM (slope of 0.528) and 10 μM (slope of 0.698). The plots represent the mean of 3 independent measurements.
Enzyme kinetic activity was assayed as described earlier, with minor modifications. All enzymatic reactions were carried out in PBS at pH 8.34 and at 37 °C. Freshly prepared FXa at a constant concentration of 1 nM was used in each reaction. ACH-11 was dissolved in 5% DMSO. Activities were measured for 4 different fixed concentrations of substrate (73.5, 147, 294 and 588 μM) in different concentrations of ACH-11 (0, 5 and 10 μM). The rates of the enzymatic reactions were monitored at 405 nm for 20 min using the Powerwave XS (Biotek, USA).

[6] = tested on: ADP-induced rabbit platelet aggregation; test: In vitro platelet aggregation assay, ADP-induced; format: cell-based; settings: ADP 10 μM, rabbit PRP, turbidimetric, preincubated 5 min; 95% CI 185.36–225.02 μM
Procedure: as §2, §3, §4

T1 sequence (P00742 235-488 limits assumed): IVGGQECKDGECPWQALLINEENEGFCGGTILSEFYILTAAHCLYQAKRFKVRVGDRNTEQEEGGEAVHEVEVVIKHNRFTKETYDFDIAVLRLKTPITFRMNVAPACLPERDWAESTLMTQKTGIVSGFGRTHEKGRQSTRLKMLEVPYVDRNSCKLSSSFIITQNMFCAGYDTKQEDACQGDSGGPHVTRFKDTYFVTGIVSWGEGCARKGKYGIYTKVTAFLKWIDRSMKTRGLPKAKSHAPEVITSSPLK
T1 sequence (P00742 41-179 partner limits assumed): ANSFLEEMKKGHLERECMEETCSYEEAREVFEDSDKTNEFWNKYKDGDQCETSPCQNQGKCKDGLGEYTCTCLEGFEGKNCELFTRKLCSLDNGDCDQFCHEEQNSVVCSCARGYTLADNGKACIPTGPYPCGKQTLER

CC(=O)Oc1ccccc1C(=O)O [Aspirin, aspirin]
Numbers of lethal/total ([1]; vehicle 9/10, P = 0.0055 versus vehicle): 2/10 | Protection rate ([1]; vehicle 10%, P = 0.0055 versus vehicle, n = 10): 80^** % | reduction of thrombus weight [2]: 59.10 ± 2.98% | bleeding time (bleeding time in mice; aspirin 9 mg/kg, 30 min after administration): 17.03 ± 2.86 min

LTFPRIVFVLG [fraction C4, RP-HPLC fraction of fraction C, purity greater than 96%; peptide … (natural ACH-11)]
FXa inhibitory activity (in words) (FXa [3]): displayed the highest FXa inhibitory activity

CC[C@H](C)[C@H](NC(=O)[C@H](CCCNC(=N)N)NC(=O)[C@@H]1CCCN1C(=O)[C@H](Cc1ccccc1)NC(=O)[C@@H](NC(=O)[C@@H](N)CC(C)C)[C@@H](C)O)C(=O)N[C@H](C(=O)N[C@@H](Cc1ccccc1)C(=O)N[C@H](C(=O)N[C@@H](CC(C)C)C(=O)NCC(=O)O)C(C)C)C(C)C [ACH-11, LTFPRIVFVLG] (H-LTFPRIVFVLG-OH)
pIC50 [4]: 3.33 | pKi (FXa [5]; PBS pH 8.34, 37 °C, FXa 1 nM, S-2222 73.5-588 μM, ACH-11 0, 5, 10 μM, 5% DMSO, mixed inhibition, mean of 3 independent measurements, read-out: Ki value for FXa inhibition towards S-2222): 5.04 | change in Vmax and Km of FXa towards S-2222 (FXa [5]; in the presence of ACH-11, PBS pH 8.34, 37 °C): A decrease in the Vmax value with a subsequent increase in the Km value | bleeding time (bleeding time in mice; ACH-11 1 mg/kg, 15 min after administration): 10.71 ± 2.98 min | bleeding time (bleeding time in mice; ACH-11 3 mg/kg, 15 min after administration): 11.73 ± 2.68 min | bleeding time (bleeding time in mice; ACH-11 9 mg/kg, 15 min after administration): 14.01 ± 1.88 min | bleeding time (effect in words) (bleeding time in mice; ACH-11 3 and 1 mg/kg, compared with vehicle): did not significantly prolong the bleeding time | pIC50 [6]: 3.69
